This note sets out measurements from US4673674A, “Diazepinoindoles useful for treating depression, schizophrenia, social withdrawal or anxiety and pharmaceutical compositions containing them” (Sandoz Pharmaceuticals Corp., priority 1984, dated 1987).

Assay [1] addresses T1, 5-HT2 receptors in the rat frontal cortex (Rattus norvegicus, UniProt P14842).
T1 construct: Fresh frontal cortex tissue from rat brain is homogenized; from tissue; host or cells: rat frontal cortex membranes
Kind of assay: inhibition of specific 3H-spiperone binding to 5-HT2 receptors in rat frontal cortex. The conditions noted are these: rat frontal cortex membranes, 1 nM 3H-spiperone, 1 h at 37° C., pH 7.7. The method, then:
This test has been carried out as follows:
Fresh frontal cortex tissue from rat brain is homogenized in a 20 fold volume of Tris-HCl buffer (50 mM, pH 7.7, containing 4 mM CaCl2, 10 μM pargyline, and 0.1% ascorbic acid), and centrifuged. The pellets are resuspended in a 25 fold volume of the same buffer, incubated for 15 min at 37° C., and recentrifuged. The pellets are frozen at -20° C. and resuspended in a 360 fold volume of the same buffer as above before use for the binding experiment. The composition of the assay mixtures (total volume =2 ml) is as follows: 50 mM Tris-HCl pH 7,7, 4 mM CaCl2, 10 μM pargyline, 0.1% ascorbic acid, membranes corresponding to 5 mg of original tissue weight, and 1 nM ^3 H-spiperone. The assays for the determination of nonspecific binding additionally contain cinanserin in a concentration of 1 μM. […] After incubation for 1 hour at 37° C., the assay mixtures are rapidly filtered through Whatman GF/B filters and washed twice with 5 ml of ice cold incubation buffer.

Assay [2] has as its system locomotion in mice. The experiment in a line: inhibition of locomotion in mice (neuroleptic activity). The format is in vivo, mice (male, OF-1). The conditions noted are these: Mus musculus, po, read-out: EDmin (inhibition of locomotion). As to the method: In this test groups of 3 male mice (18-24 g, OF-1, Sandoz Basle) received 3.2, 10, 32, 100 and 320 mg p.o. of the test drug.

For assay [3], the target named is T2, 3H-spiperone binding sites in the brain (calf brain striatal tissue) (Bos taurus, UniProt P20288).
T2 construct: fresh calf brain striatal tissue was homogenized; from tissue; host or cells: calf brain striatal membranes
T2 sequence (P20288 whole entry): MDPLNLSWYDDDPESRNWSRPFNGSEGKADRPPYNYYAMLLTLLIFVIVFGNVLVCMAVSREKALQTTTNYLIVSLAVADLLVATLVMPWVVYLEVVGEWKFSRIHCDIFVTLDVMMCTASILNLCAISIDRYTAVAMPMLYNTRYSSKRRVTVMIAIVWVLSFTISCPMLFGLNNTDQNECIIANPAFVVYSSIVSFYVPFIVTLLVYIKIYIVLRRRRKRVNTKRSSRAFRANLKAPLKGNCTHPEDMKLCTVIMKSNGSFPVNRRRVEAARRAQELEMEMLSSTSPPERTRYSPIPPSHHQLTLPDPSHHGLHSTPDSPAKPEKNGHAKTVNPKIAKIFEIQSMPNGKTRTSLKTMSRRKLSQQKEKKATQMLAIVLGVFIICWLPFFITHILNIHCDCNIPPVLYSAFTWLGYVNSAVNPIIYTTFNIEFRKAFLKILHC
Kind of assay: inhibition of specific 3H-spiperone binding in calf brain striatal tissue. The settings on record: calf brain striatal membranes, 0.1 nM 3H-spiperone, 5×10^-7 M cinanserin, 40 minutes at room temperature.

For assay [4], the system named is paradoxical sleep (PS). Kind of assay: reduction of paradoxical sleep (PS) in the 48 h sleep EEG in rats. The conditions noted are these: 3.2-32 mg/kg p.o. Type of assay: in vivo. The source says: Kleinlogel "EEG in Drug Research" ed. by Hermann, Gustav Fischer Verlag, Stuttgart, N.Y., 75-88 (1982)].

Read-outs that look alike come from different tables or passages of the source.

T1 sequence (P14842 whole entry): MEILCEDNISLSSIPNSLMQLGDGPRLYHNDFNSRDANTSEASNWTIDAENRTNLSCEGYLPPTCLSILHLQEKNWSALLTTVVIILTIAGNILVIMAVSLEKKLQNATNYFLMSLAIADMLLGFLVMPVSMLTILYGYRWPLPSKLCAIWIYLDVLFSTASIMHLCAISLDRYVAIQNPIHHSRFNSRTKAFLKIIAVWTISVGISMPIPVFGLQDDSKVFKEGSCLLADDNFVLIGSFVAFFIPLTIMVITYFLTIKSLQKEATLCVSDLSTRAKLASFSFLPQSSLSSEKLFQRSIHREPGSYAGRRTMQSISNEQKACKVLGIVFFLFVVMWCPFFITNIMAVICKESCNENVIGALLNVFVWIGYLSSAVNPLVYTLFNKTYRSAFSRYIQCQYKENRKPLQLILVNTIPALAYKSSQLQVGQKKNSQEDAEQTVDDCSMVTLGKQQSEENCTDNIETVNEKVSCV

In assay [1], `CN1CCc2c(-c3ccccc3)c3ccccc3n2CC1` [Example 1, 2,3,4,5-Tetrahydro-3-methyl-11-phenyl-1H-[1,4]diazepino[1,7-a]indole] had an IC50 of 0.001 to 0.01 µM. The same measure, in the same setting: as for `c1ccc(-c2c3n(c4ccccc24)CCNCC3)cc1` [Example 2, 2,3,4,5,-Tetrahydro-11-phenyl-1H-[1,4]diazepino[1,7-a]indole], the figure is 0.001 to 0.01 µM.

Molecule `C=CCN1CCc2c(-c3ccccc3)c3ccccc3n2CC1` [Example 3, 3-Allyl-2,3,4,5-tetrahydro-11-phenyl-1H-[1,4]diazepino-[1,7-a]indole] had an IC50 in assay [1] of 0.001 to 0.01 µM. The same measure, in the same setting: as for `c1ccc(-c2c3n(c4ccccc24)CCN(CC2CC2)CC3)cc1` [Example 4, 3-Cyclopropylmethyl-2,3,4,5-tetrahydro-11-phenyl-1H-[1,4]diazepino[1,7-a]indole], the figure is 0.001 to 0.01 µM.

On to `CN1CCc2c(-c3ccc(Cl)cc3)c3ccccc3n2CC1` [Example 5j], for which the minimal effective dose in assay [2] (male mice, 1 hour after administration) is 3.2 mg/kg. The half-maximal inhibitory concentration (IC50) in assay [3] came out at 0.137 µM. The molecule `CN(C)CCC=C1c2ccccc2CCc2ccccc21` [amitriptyline, reference compound] returned an IC50 in assay [1] of 0.015 µM. In addition, in assay [4], the “reduction of paradoxical sleep (PS)” value is “reduce further the paradoxical sleep (PS) without rebound”. Regarding `CSc1ccc2c(c1)N(CCC1CCCCN1C)c1ccccc1S2` (stereo not drawn) [thioridazine, reference compound], the minimal effective dose in assay [2] (1 h) lay within 10 to 32 mg/kg.
